Reference: US5696153A, “Therapeutic regimen for treating patients” (priority 1996, dated 1997)
Entries after “also recorded” stand apart in the source; their conditions may differ. Like-named read-outs stand apart in the source and are kept apart here.

How the values were obtained:
[1] = tested on: SK-N-LO primitive neuroectodermal tumor cells; assay: MTT cytotoxicity, SK-N-LO; details: for cytotoxicity at 0.01 µg/mL / cytotoxicity at 0.1 µg/mL / cytotoxicity at 1 µg/mL: Homo sapiens, 120 h
Excerpt: (§1) Cell lines tested included: Glioblastoma cell lines VA-MG-SL and U-373-MG, neuroblastoma cell lines SK-N-AS, SK-N-FI and VA-N-BR, and two primitive neuroectodermal tumor cell lines SK-N-LO and SK-PN-DW at different concentrations. All cell lines were personally established from patients and cultured except U-373-MG (obtained from the American Type Culture Collection, Rockville, […]., USA). The cell lines SK-N-AS, SK-N-FI, SK-N-LO and SK-PN-DW have been reported in several publications and are believed to be representative of their respective lineages.
(§2) Stock cells in 25 cm^2 flasks were incubated in Dubelco's modified Eagle's medium (Sigma, St. Louis, Mo.) containing 10% fetal bovine serum at 37° C. and 5% CO2 in air for 5 days. Media was renewed on the sixth day and on the seventh day the cells were detached into a single cell suspension with trypsin EDTA, counted and aliquots plated at 3000 to 5000 cells in 0.1 ml fresh media in separate wells of a 96-well microliter plate (Becton-Dickinson Labware, Lincoln Park, N.J.). […] Six replicate wells were used in every experiment as controls and for each test concentration. Each experiment was repeated three separate times. Viability of the cell lines 5 days after exposure to drugs was determined by the MTT assay following published procedures.
(§3) Cytocidal activity was defined when the number of cells or the MTT surrogate optical density value was less than the initial inoculum. This is usually the case when ≥80% toxicity is recorded under these in vitro conditions.
(§4) Differences were considered to be statistically significant for a p-value of 0.05 or less.

[2] = tested on: recurrent or refractory solid tumors of childhood; assay: Study Y: pilot study of children with recurrent or refractory cancer; type: in vivo, human (children)
Protocol: A pilot study of children with recurrent or refractory cancer was initiated under our direction. Ten patients with a variety of recurrent or refractory solid tumors of childhood were treated with the same dosage and schedule as the adults described above.

[3] = tested on: ovarian and breast cancers; details: background statement; cited from earlier work
[4] = Study B: taxol tissue levels after three IP injections at 4 day intervals; type: in vivo, nude mice; details: seven days after third injection
[5] = cited from earlier work
various cancers = assay: Human tumor responses, Q4D schedule; type: in vivo, human patients
Protocol: From the results obtained from the in vitro and the animal studies, responses of various human subjects to the Q4d×3 (21 days×3) protocol at dosages levels of about 60 mg/m^2 were evaluated. It should be understood that these patients were deemed "salvage" cases almost all of whom had not responded to conventional treatment. All were otherwise thought to be beyond approved therapeutic regimens. Thus, the results and evaluation are anecdotal in nature and are not part of a controlled and statistical valid clinical trial.
Characteristics of the group of twenty were: male (5); female (15); median age 44 (17-81); ECOG-PS 1 (0-3). All were previously treated with chemotherapy and radiation for cancers of the breast (5), ovarian (2), brain (3), prostate (1), head and neck (4), bone (2), leiomyosarcoma (2), and melanoma (1).

[6] = tested on: SK-N-AS neuroblastoma tumor in nude mice; assay: Studies B and D: antitumor activity, Q4Dx3 vs Q4Hx3; type: in vivo
[7] = tested on: SK-N-FI neuroblastoma cells; assay: cells; details: for cytotoxicity at 0.1 µg/mL / cytotoxicity at 1 µg/mL: 120 h
Excerpt: as §1, §2, §3, §4

[8] = tested on: VA-N-BR neuroblastoma cells; assay: cells; details: Neuroblastoma cell; for cytotoxicity at 0.1 µg/mL / cytotoxicity at 1 µg/mL: Homo sapiens, 120 h
Excerpt: as §1, §2, §3, §4

[9] = tested on: VA-MG-SL glioblastoma cells; assay: cells; details: for cytotoxicity at 0.1 µg/mL / cytotoxicity at 1 µg/mL: Homo sapiens, 120 h
Excerpt: as §1, §2, §3, §4

[10] = tested on: U-373-MG glioblastoma cells; assay: cells; details: Homo sapiens, U373 MG; for cytotoxicity at 0.1 µg/mL / cytotoxicity at 1 µg/mL: 120 h
Excerpt: as §1, §2, §3, §4

[11] = tested on: SK-N-AS neuroblastoma cells; assay: MTT cytotoxicity, SK-N-AS; details: for cytotoxicity at 0.01 µg/mL / cytotoxicity at 0.1 µg/mL / cytotoxicity at 1 µg/mL: Homo sapiens, 120 h
Excerpt: as §1, §2, §3, §4

[12] = read-out: concentration at which cell line was affected

CC(=O)O[C@H]1C(=O)[C@@]2(C)[C@H]([C@H](OC(=O)c3ccccc3)[C@]3(O)C[C@H](OC(=O)[C@H](O)[C@@H](NC(=O)c4ccccc4)c4ccccc4)C(C)=C1C3(C)C)[C@]1(OC(C)=O)CO[C@@H]1C[C@@H]2O [taxol]
concentration in normal tissues, treated vs controls (10 mg/kg IP Q4D×3, then single 20 mg/kg IP): consistently greater than in nontreated controls; also recorded: consistently greater than in Group A
concentration in tumor vs liver, kidney or lung (after single 20 mg/kg IP): usually greater in tumor tissue compared to liver, kidney or lung
distribution in tumor tissue compared to liver, kidney or lung (mouse, in vivo): four to thirty
Taxol, tumor (treated (Cages II, III): 10 mg/kg Q4D×3, then 20 mg/kg IP 24 h prior, individual mice): 195.24 ng/mg Protein
cytotoxicity at 0.01 µg/mL ([1]; read-out: Taxol toxicity, SK-N-LO, 0.01 μg/ml x 1 h, 5 days after exposure): 0%
cytotoxicity at 0.01 µg/mL ([1]; read-out: Taxol toxicity, SK-N-LO, 0.01 μg/ml x 4 h, 5 days after exposure): 0%
cytotoxicity at 0.01 µg/mL ([1]; read-out: Taxol toxicity, SK-N-LO, 0.01 μg/ml x 24 h, 5 days after exposure, p < 0.05 vs 1 h): 17%
cytotoxicity at 0.1 µg/mL ([1]; read-out: Taxol toxicity, SK-N-LO, 0.1 μg/ml x 1 h, 5 days after exposure): 43%
cytotoxicity at 0.1 µg/mL ([1]; read-out: Taxol toxicity, SK-N-LO, 0.1 μg/ml x 4 h, 5 days after exposure): 56%
cytotoxicity at 0.1 µg/mL ([1]; read-out: Taxol toxicity, SK-N-LO, 0.1 μg/ml x 24 h, 5 days after exposure): 47%
cytotoxicity at 1 µg/mL ([1]; read-out: Taxol toxicity, SK-N-LO, 1.0 μg/ml x 1 h, 5 days after exposure): 54%
cytotoxicity at 1 µg/mL ([1]; read-out: Taxol toxicity, SK-N-LO, 1.0 μg/ml x 4 h, 5 days after exposure): 58%
cytotoxicity at 1 µg/mL ([1]; read-out: Taxol toxicity, SK-N-LO, 1.0 μg/ml x 24 h, 5 days after exposure): 57%
cytotoxicity compared with a 1 hour exposure ([1]; SK-N-LO, 0.01 μg/ml, 24 hour): enhanced cytotoxicity
toxicity in words ([1]; SK-N-LO, 0.01 μg/ml, 24 hour exposure): toxic
tumor response on CT scan ([2]; one patient, pelvic embryonal rhabdomyosarcoma): shrinkage of their tumor
decrease in tumor volume ([2]; one patient, recurrent glioblastoma multiforme, after 9 treatments): 30%
progression ([2]; rhabdomyosarcoma patient, shortly following the 9th treatment): developed a brain metastasis
antitumor activity in words [3]: among the most active single agent for ovarian and breast cancers
taxol in the colon [4]: Substantial amounts
taxol in tumor and organs [4]: detectable in tumor and organs
maximum tolerated dose ([5]; Brown et al, six-hour infusion every twenty-one days, no premedication): 275 mg/m^2
incidence of hypersensitivity reactions ([5]; Brown et al): dependent upon the schedule over which the taxol was administered
hypersensitivity reactions ([5]; Kris et al, three hour infusion, 15-200 mg/m^2): severity and unpredictability of hypersensitivity reactions
antitumor activity in words (various cancers; Q4D schedule, advanced disease patients with varied histologies): has antitumor activity in advanced disease patients with varied histologies
effectiveness vs Q21 day schedule (various cancers; Q4D, previously untreated patients or in combination/sequence, interpretation): equal to, or more effective than, the Q21 day schedule
partial response (various cancers; all): four
partial response (various cancers; brain): 1 instances
complete response (various cancers; brain tumor): one
partial response (various cancers; breast): 2 instances
partial response (various cancers; head and neck): 1 instances
effectiveness in words (various cancers; salvage patients, limited tests): demonstrated effectiveness
antitumor activity, Q4D×3 vs Q4H×3 ([6]; 15 mg/kg IP): greater antitumor activity than the Q4H×3 schedule
antitumor activity, Q4D vs QD schedule ([6]; mouse, in vivo): better in the Q4D than in the QD schedule
resilience of cell line to taxol (least/most resilient) ([7]; 0.01-1.0 μg/ml): the most
cytotoxicity at 0.1 µg/mL ([7]; Homo sapiens, read-out: Taxol toxicity, SK-N-FI, 0.1 μg/ml x 1 h, 5 days after exposure): 0%
cytotoxicity at 0.1 µg/mL ([7]; Homo sapiens, read-out: Taxol toxicity, SK-N-FI, 0.1 μg/ml x 4 h, 5 days after exposure): 0%
cytotoxicity at 0.1 µg/mL ([7]; Homo sapiens, read-out: Taxol toxicity, SK-N-FI, 0.1 μg/ml x 24 h, 5 days after exposure, p < 0.05 vs 1 h): 14%
cytotoxicity at 1 µg/mL ([7]; Homo sapiens, read-out: Taxol toxicity, SK-N-FI, 1.0 μg/ml x 1 h, 5 days after exposure): 0%
cytotoxicity at 1 µg/mL ([7]; Homo sapiens, read-out: Taxol toxicity, SK-N-FI, 1.0 μg/ml x 4 h, 5 days after exposure): 58%
cytotoxicity at 1 µg/mL ([7]; Homo sapiens, read-out: Taxol toxicity, SK-N-FI, 1.0 μg/ml x 24 h, 5 days after exposure, p < 0.05 vs 1 h): 76%
minimal effective concentration ([7]; Homo sapiens, read-out: concentration at which cell line was affected): ≥ 0.1 µg/mL
cytotoxicity at 0.1 µg/mL ([8]; read-out: Taxol toxicity, VA-N-BR, 0.1 μg/ml x 1 h, 5 days after exposure): 61%
cytotoxicity at 0.1 µg/mL ([8]; read-out: Taxol toxicity, VA-N-BR, 0.1 μg/ml x 4 h, 5 days after exposure): 66%
cytotoxicity at 0.1 µg/mL ([8]; read-out: Taxol toxicity, VA-N-BR, 0.1 μg/ml x 24 h, 5 days after exposure): 68%
cytotoxicity at 1 µg/mL ([8]; read-out: Taxol toxicity, VA-N-BR, 1.0 μg/ml x 1 h, 5 days after exposure): 87%
cytotoxicity at 1 µg/mL ([8]; read-out: Taxol toxicity, VA-N-BR, 1.0 μg/ml x 4 h, 5 days after exposure): 84%
cytotoxicity at 1 µg/mL ([8]; read-out: Taxol toxicity, VA-N-BR, 1.0 μg/ml x 24 h, 5 days after exposure): 83%
minimal effective concentration [8, 12]: ≥ 0.1 µg/mL
cytotoxicity at 0.1 µg/mL ([9]; read-out: Taxol toxicity, VA-MG-SL, 0.1 μg/ml x 1 h, 5 days after exposure): 58%
cytotoxicity at 0.1 µg/mL ([9]; read-out: Taxol toxicity, VA-MG-SL, 0.1 μg/ml x 4 h, 5 days after exposure): 56%
cytotoxicity at 0.1 µg/mL ([9]; read-out: Taxol toxicity, VA-MG-SL, 0.1 μg/ml x 24 h, 5 days after exposure): 58%
cytotoxicity at 1 µg/mL ([9]; read-out: Taxol toxicity, VA-MG-SL, 1.0 μg/ml x 1 h, 5 days after exposure): 87%
cytotoxicity at 1 µg/mL ([9]; read-out: Taxol toxicity, VA-MG-SL, 1.0 μg/ml x 4 h, 5 days after exposure): 90%
cytotoxicity at 1 µg/mL ([9]; read-out: Taxol toxicity, VA-MG-SL, 1.0 μg/ml x 24 h, 5 days after exposure): 86%
minimal effective concentration [9, 12]: ≥ 0.1 µg/mL
cytotoxicity at 0.1 µg/mL ([10]; read-out: Taxol toxicity, U-373-MG, 0.1 μg/ml x 1 h, 5 days after exposure): 46%
cytotoxicity at 0.1 µg/mL ([10]; read-out: Taxol toxicity, U-373-MG, 0.1 μg/ml x 4 h, 5 days after exposure): 56%
cytotoxicity at 0.1 µg/mL ([10]; read-out: Taxol toxicity, U-373-MG, 0.1 μg/ml x 24 h, 5 days after exposure): 57%
cytotoxicity at 1 µg/mL ([10]; read-out: Taxol toxicity, U-373-MG, 1.0 μg/ml x 1 h, 5 days after exposure): 74%
cytotoxicity at 1 µg/mL ([10]; read-out: Taxol toxicity, U-373-MG, 1.0 μg/ml x 4 h, 5 days after exposure): 79%
cytotoxicity at 1 µg/mL ([10]; read-out: Taxol toxicity, U-373-MG, 1.0 μg/ml x 24 h, 5 days after exposure): 79%
minimal effective concentration [10, 12]: ≥ 0.1 µg/mL
cytotoxicity compared with a 1 hour exposure ([11]; 0.01 μg/ml, 24 hour): enhanced cytotoxicity
toxicity in words ([11]; 0.01 μg/ml, ≥1 hour exposure): toxic
resilience of cell line to taxol ([11]; 0.01-1.0 μg/ml): least resilient of the cell lines
cytotoxicity at 0.01 µg/mL ([11]; read-out: Taxol toxicity, SK-N-AS, 0.01 μg/ml x 1 h, 5 days after exposure): 15%
cytotoxicity at 0.01 µg/mL ([11]; read-out: Taxol toxicity, SK-N-AS, 0.01 μg/ml x 4 h, 5 days after exposure): 25%
cytotoxicity at 0.01 µg/mL ([11]; read-out: Taxol toxicity, SK-N-AS, 0.01 μg/ml x 24 h, 5 days after exposure, p < 0.05 vs 1 h): 50%
cytotoxicity at 0.1 µg/mL ([11]; read-out: Taxol toxicity, SK-N-AS, 0.1 μg/ml x 1 h, 5 days after exposure): 65%
cytotoxicity at 0.1 µg/mL ([11]; read-out: Taxol toxicity, SK-N-AS, 0.1 μg/ml x 4 h, 5 days after exposure): 67%
cytotoxicity at 0.1 µg/mL ([11]; read-out: Taxol toxicity, SK-N-AS, 0.1 μg/ml x 24 h, 5 days after exposure, p < 0.05 vs 1 h): 81%
cytotoxicity at 1 µg/mL ([11]; read-out: Taxol toxicity, SK-N-AS, 1.0 μg/ml x 1 h, 5 days after exposure): 87%
cytotoxicity at 1 µg/mL ([11]; read-out: Taxol toxicity, SK-N-AS, 1.0 μg/ml x 4 h, 5 days after exposure): 82%
cytotoxicity at 1 µg/mL ([11]; read-out: Taxol toxicity, SK-N-AS, 1.0 μg/ml x 24 h, 5 days after exposure): 89%
